Measured values published in patent US20100273752A1, “MEQUITAZINE FOR TREATING OR PREVENTING PATHOLOGIES INVOLVING HISTAMINE H4 RECEPTORS” (PIERRE FABRE MEDICAMENT, priority 2007, published 2010).
Several values for one entry are separate records, joined by “and”; a condition that tells them apart may be missing. Identical values can stand only once.

Tests used:
[1] = test system: plantar edema induced by histamine; test: Plantar edema induced by histamine in the mouse, oral administration; assay type: in vivo; conditions: for Inhibition of inflammation (%): 3 mg/kg oral
Protocol: The goal of this experiment was to detect possible anti-inflammatory activity of […], […] and […] with respect to plantar edema induced by histamine in the mouse. The principle of the test is inspired by the publication of Kreutner et al. (2000). All groups were composed of 10 animals. The products were administered by oral route (25 ml/kg) in pretreatment, at various times: 120, 90, 60 and 30 minutes before the inflammation-producing agent. Sixty minutes later, an injection (10 μl) in the paw was given under isoflurane anesthesia. The right paw received 13 μg of histamine dihydrochloride and the left paw physiological saline solution (histamine vehicle). Thirty minutes after the injections, the animals were euthanized by cervical dislocation. The paws were sampled and weighed. The edemas were quantified by the difference between the weights of the paws (weight of right paw-weight of left paw).

[2] = test system: histamine-induced bronchoconstriction; test: Histamine-induced bronchoconstriction, Konzett model, intravenous administration; assay type: in vivo, guinea pig
Protocol: The goal of these experiments is to evaluate the activity of the three compounds […] and […] with respect to histamine-induced bronchoconstriction in the Konzett (1940) guinea pig model. Previously we saw that the three compounds exerted antihistamine activity with respect to H4 receptor in vitro, while on the other hand in vivo only […] and […] appeared anti-inflammatory when the inflammation is generated by histamine. It seems that […] loses its activity when it is administered by oral route. With an aim of analyzing the activity by intravenous route of the three products, the following test was conducted. The animals are ventilated, by means of a constant pressure respiratory pump, by a volume of air in excess. […] The variations observed represent changes in bronchial tonus. Histamine-induced bronchoconstriction causes an increase in the excess volume measured by the sensor. The various compounds are administered by way of the jugular vein, which is catheterized beforehand. Histamine stimulation is then carried out by intravenous route at a dose of 7 μg/kg.

[3] = Transcutaneous passage through human skin explants in dynamic diffusion chamber; assay type: in vitro ADME
Description: The importance of H4 receptor in pruritus was recently established. Thus, an antagonist targeting the histamine H4 receptors involved in dermatological pruritus can constitute a weapon of choice for breaking behaviors related to pruritus and, consequently, for avoiding superinfections generated by the skin lesions caused by pruritus. […] To this end, it is useful to have an H4 antihistamine likely to cross the cutaneous barrier in order to reach its target on subcutaneous mast cells. […] Human skin explants were placed in a dynamic diffusion chamber (diffusion area of 0.636 cm^2), with the dermis in contact with the receptor medium (water; 0.9% NaCl 0.9% NaN3 0.1%/ethanol; 75/25; v/v). The flow rate is 1.5 ml/h. The study is carried out at 32° C. The solution containing the compound (500 μl to 2.5 mg/ml, or 10 μCi per cell) is deposited at T=0. The study of transcutaneous passage is carried out under occlusion. The receiving liquid is sampled at 3, 6, 9, 12, 16, 20 and 24 hours.

[4] = test system: bronchoconstriction induced by acetylcholine; test: Inhibition of acetylcholine-induced bronchoconstriction in anaesthetized ventilated guinea pigs; assay type: in vivo, guinea pig
Protocol: Guinea pigs are anaesthetized and artificially ventilated. The air penetrating the lungs is measured by means of a sensor. Each inspiration is thus quantified. Bronchoconstriction is then induced by intravenous injection of acetylcholine. The effect of acetylcholine is a direct and immediate modification of bronchial tonus. The bronchoconstriction effects of acetylcholine are evaluated in mm at the peak of the effects.

respiratory functions = test: Effects on respiratory functions after oral administration in male Wistar rats; assay type: in vivo, rat
Protocol: The effects of […] (0.5, 50 and 100 mg/kg) on respiratory functions are analyzed after oral (per os) administration in male Wistar rats (8 rats/dose). […] (100 mg/kg) administered under the same conditions is used as a reference substance. Theophylline (100 mg/kg), administered under the same experimental conditions, is used as a reference substance. Carboxymethyl cellulose (0.5%) in distilled water is used as a control vehicle. At the end of the testing period (i.e., 360 minutes after administration of the dose), the behavior of the animals as well as the diameter of their pupils (miosis/mydriasis) are evaluated. Blood samples are taken from each rat (except those pertaining to the theophylline group) in order to analyze the concentration of the substance in the blood. […]

H4 receptor = H4 receptor (Homo sapiens, UniProt Q9H3N8); test: G protein activation test ([35S] GTP binding)
Chain of H4 receptor (Q9H3N8 whole entry): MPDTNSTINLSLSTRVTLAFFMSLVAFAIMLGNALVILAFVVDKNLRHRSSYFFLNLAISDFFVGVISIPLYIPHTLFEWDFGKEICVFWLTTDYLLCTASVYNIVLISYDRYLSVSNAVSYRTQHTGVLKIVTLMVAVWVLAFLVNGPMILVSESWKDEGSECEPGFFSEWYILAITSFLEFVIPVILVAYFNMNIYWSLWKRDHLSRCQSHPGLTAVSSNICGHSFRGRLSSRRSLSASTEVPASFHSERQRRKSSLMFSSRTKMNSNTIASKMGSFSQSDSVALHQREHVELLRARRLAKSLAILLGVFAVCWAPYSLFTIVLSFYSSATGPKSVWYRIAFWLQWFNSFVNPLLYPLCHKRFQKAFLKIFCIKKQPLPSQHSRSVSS

histamine H4 receptor [5] = molecular target: T1, histamine H4 receptor (Homo sapiens, UniProt Q9H3N8); test: Affinity constants by competition with tritiated histamine on membrane preparations from CHO cells expressing H4 receptor; assay type: binding; set-up: expressed in transfected cells; host or cells: CHO; conditions: CHO cell membranes
T1 sequence (Q9H3N8 whole entry): as above
Description: In a second series of experiments, the affinity constants of these three compounds are precisely determined by competition with the tritiated histamine radioligand on membrane preparations from CHO cells expressing in a stable manner histamine H4 receptor.

histamine H4 receptor [6] = molecular target: T1, histamine H4 receptor; test: Receptor binding in vitro, HEK-293 cells stably transfected with human H4 receptor, 10 nM tritiated histamine; set-up: expressed in transfected cells; host or cells: HEK-293
Protocol: The goal of this study is to determine an affinity constant of the compound with respect to human histamine H4 receptor in vitro. The model chosen is HEK-293 cells transfected in a stable fashion by cDNA coding for human H4 receptor (Liu et al., 2001). First is determined the affinity of cells expressing each type of receptor for a ligand for which it was also established that it bound 100% to the receptor. The optimal ligand for the recombinant receptor is 10 nM tritiated histamine. Receptor binding is defined as follows: the difference between total binding and the nonspecific binding determined in the presence of excess cold ligand. The results are expressed as a percentage of optimal binding obtained with the ligand model (100%).

## c1ccc2c(c1)Sc1ccccc1N2CC1CN2CCC1CC2 (racemic) [L0013, 10-[(3R,3S)-1-azabicyclo[2.2.2]oct-3-ylmethyl]-10H-phenothiazine]
[1]; pretreatment −30 min
  Inhibition of inflammation (%): −54%
[1]; pretreatment −60 min
  Inhibition of inflammation (%): −65%
[1]; pretreatment −90 min
  Inhibition of inflammation (%): −82%
[1]; pretreatment −120 min
  Inhibition of inflammation (%): −80%
[1]; oral, 120, 90, 60 and 30 minutes beforehand
  Anti-inflammatory activity, range over pretreatment times: −54% to −82%
[2]; 12.5 mg/kg i.v.
  Inhibition at 5 min (%): −35 ± 6%
  Inhibition at 30 min (%): −39 ± 7%
[2]; 25 mg/kg i.v.
  Inhibition at 5 min (%): −35 ± 5%
  Inhibition at 30 min (%): −61 ± 5%
[2]; 37.5 mg/kg i.v.
  Inhibition at 5 min (%): −26 ± 4%
  Inhibition at 30 min (%): −51 ± 8%
[2]; 50 mg/kg i.v.
  Inhibition at 5 min (%): −37 ± 5%
  Inhibition at 30 min (%): −57 ± 7%
[3]; 24 hours
  Accumulated quantity in receiving liquid (receptor zone) at 24 hours: 107 μg/cm^2 and 107±28 μg/cm^2
[3]; human, 2.5 mg/ml
  Nearly constant maximum flow: 5.4 μg/cm^2/h
  Time at which nearly constant maximum flow is reached: 16 h
[3]; human, 24 h, 2.5 mg/ml
  Amount of compound in dermis: 45±14 μg/cm^2
  Amount of compound in epidermis: 56±17 μg/cm^2
  Total amount of compound in skin (epidermis and dermis): 101 μg/cm^2
  Transcutaneous passage: approx. 100 μg/cm^2/24 h
[4]; dose 25 μg/kg
  Percentage of inhibition (%): −8 ± 1%
[4]; dose 50 μg/kg
  Percentage of inhibition (%): −25 ± 2%
[4]; dose 100 μg/kg
  Percentage of inhibition (%): −24 ± 6%
Respiratory functions; 100 mg/kg p.o., at 60 minutes
  Change in respiratory rate: +80%
  Change in respiratory volume: −26%
Respiratory functions; 100 mg/kg p.o., at 120 minutes
  Change in relaxation time: −30%
Respiratory functions; rat, in vivo
  Pupil diameter: appreciable increase
H4 receptor; 0.1 μM histamine, FIG. 1a
  Effect on G protein activation induced by histamine: antagonize the activating action
H4 receptor; FIG. 1b
  Functional character at H4 receptor (basal activity in the absence of agonist): inverse agonists
Histamine H4 receptor [5]
  Ki: 1630 ± 200 nM
Histamine H4 receptor [6]
  Binding to human histamine H4 receptors (in words): strongly bind
